Measurements from paper PMC10458458, “Characterization of Anticancer Effects of the Analogs of DJ4, a Novel Selective Inhibitor of ROCK and MRCK Kinases” (Pharmaceuticals, 2023).

What was measured:
[1] = test system: A375M; assay: MTT cell growth assay, 48 h; assay type: cell-based; conditions: Homo sapiens, 2000 cells/well, ±SE, read-out: IC50 from MTT assays
Description: (§1) However, as the concentration increased from 2.5 µM onwards, the effect was reversed. Similarly, DJ-Morpholine decreased the cell growth by ~30% at 0.6215 µM, while the effect remained saturated as the concentration increased. This trend was also observed in A549 lung cancer and A375M melanoma cells.
(§2) Figure 7 DJ4 analogs reduce cell growth in melanoma, breast, and lung cancer cells. MTT assay was performed to evaluate the effect of DJ4 analogs on cell growth after 48 h of treatment. IC50 values were calculated with nonlinear least squares regression curve fit by GraphPad prism. […] The error bars indicate SD from triplicates of the experiment.
(§3) The cytotoxic effect of DJ4 was studied in H1299, H226, A549, H522, H23, and H460 non-small cell lung cancer cells. The cells were seeded into 96-well plates with confluence ([…]). The cells were further treated with DMSO or DJ4 for 72 h. To study the effects of analogs, A549, A375M, and MDA-MB-231 cells were plated with low density (2000 cells/well) in a 96-well plate and grown overnight at 37 °C (with 5% CO2). Cells were treated with the analogs at the concentration of 0–10 µM for 48 h. At the end of the treatment period, cells were incubated with a tetrazolium dye MTT (3-(4,5-dimethylthiazol-2-yl)-2,5-diphenyltetrazolium bromide) reagent (Sigma) at 37 °C for 3 h to develop formazan crystals. The media was siphoned off and crystals were dissolved in DMSO and mixed gently on rocker for 5 min. Absorbance was read at 570 nm and 630 nm (background) wavelength. IC50 values were calculated from non-linear regression curve fit by using GraphPad Prism 5.0 software.

[2] = test system: A549; assay: MTT cell growth assay, 48 h; assay type: cell-based; conditions: Homo sapiens; A549, 48 h, 2000 cells/well; ±SE; read-out: IC50 from MTT assays
Description: as §1, §2, §3

[3] = biological target: ROCK1 (Homo sapiens, UniProt Q13464); assay: Cell-free biochemical kinase activity assay (pMYPT1 immunoblot); parameters: purchased Invitrogen; conditions: for inhibition at 1 µM: cell-free screen of 27 analogs, read-out: inhibition of MYPT1 phosphorylation
Chain of ROCK1 (Q13464 whole entry): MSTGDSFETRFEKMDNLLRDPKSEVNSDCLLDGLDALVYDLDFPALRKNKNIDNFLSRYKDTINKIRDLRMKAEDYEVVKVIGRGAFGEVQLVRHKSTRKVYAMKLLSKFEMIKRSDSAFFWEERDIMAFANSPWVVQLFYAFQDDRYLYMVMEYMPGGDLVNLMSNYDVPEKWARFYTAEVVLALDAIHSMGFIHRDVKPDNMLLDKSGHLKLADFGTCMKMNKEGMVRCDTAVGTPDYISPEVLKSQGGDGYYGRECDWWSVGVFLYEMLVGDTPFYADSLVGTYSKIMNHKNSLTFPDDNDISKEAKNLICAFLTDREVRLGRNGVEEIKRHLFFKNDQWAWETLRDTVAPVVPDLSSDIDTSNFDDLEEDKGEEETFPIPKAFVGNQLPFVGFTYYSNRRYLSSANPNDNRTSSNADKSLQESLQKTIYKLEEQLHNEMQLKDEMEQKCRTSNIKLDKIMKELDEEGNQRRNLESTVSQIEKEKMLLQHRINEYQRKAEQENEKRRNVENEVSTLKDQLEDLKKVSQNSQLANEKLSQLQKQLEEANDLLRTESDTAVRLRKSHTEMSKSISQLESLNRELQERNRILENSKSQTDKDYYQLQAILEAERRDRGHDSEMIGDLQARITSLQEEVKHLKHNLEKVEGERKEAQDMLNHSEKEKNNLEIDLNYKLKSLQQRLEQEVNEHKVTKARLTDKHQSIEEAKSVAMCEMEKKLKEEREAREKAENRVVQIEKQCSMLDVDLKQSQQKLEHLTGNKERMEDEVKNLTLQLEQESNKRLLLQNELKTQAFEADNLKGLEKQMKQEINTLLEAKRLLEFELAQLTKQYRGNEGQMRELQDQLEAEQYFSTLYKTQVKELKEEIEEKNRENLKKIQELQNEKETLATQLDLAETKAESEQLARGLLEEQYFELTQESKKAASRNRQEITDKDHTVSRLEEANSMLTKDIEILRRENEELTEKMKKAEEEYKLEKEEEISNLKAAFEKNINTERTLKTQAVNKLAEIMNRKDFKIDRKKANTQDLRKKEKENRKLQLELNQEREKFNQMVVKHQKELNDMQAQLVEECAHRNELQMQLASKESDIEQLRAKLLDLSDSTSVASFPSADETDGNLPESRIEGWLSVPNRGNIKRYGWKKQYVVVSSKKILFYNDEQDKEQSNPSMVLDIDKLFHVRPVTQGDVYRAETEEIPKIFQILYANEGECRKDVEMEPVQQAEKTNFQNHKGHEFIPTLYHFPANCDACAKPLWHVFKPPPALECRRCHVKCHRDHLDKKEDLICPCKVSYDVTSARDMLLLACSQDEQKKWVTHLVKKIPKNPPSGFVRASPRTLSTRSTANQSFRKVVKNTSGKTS
Description: Cell-free biochemical kinase inhibitory activity of these compounds was evaluated at 1 µM concentration using the previously described ROCK1 kinase activity assay. Among the 27 analogs, we identified four analogs (DJ110, DJ-Allyl, DJE4, and DJ-Morpholine) with >50% inhibition of MYPT1 phosphorylation (Supplementary Figure S1). These four compounds were selected for further evaluation at 1 µM and 0.1 µM for their in vitro inhibitory activity against ROCK1, ROCK2, MRCKα, and MRCKβ kinases.
Cell-free biochemical kinase activity was assayed using published procedures. Briefly, recombinant ROCK1 (9.48 nM) or ROCK2 (8.26 nM; Invitrogen, Waltham, MA, USA) was incubated in the presence of 0.1 and 1 µM concentrations of DJ4 analogs or DMSO in ROCK-assay buffer at room temperature (RT) for 10 min. MRCKα and MRCKβ (2 ng/µL; Invitrogen) assays were performed in the assay buffer recommended by the manufacturer. Recombinant MYPT1 (20 ng/µL; Millipore) and ATP (5 µM) were added to initiate the reaction. The reaction was incubated at 30 °C for 20 min. Western blot analysis of these samples for phosphorylation of MYPT1 was performed as per the method mentioned in our earlier publication. Briefly, an equal amount of sample was loaded on Bis-Tris gel (Novex, Life Technologies, Carlsbad, CA, USA), proteins were electrophoresed and transferred to PVDF membranes. The blots were probed with anti-pMYPT1 (Thr696) or anti-MYPT1 (Millipore) antibodies.
Figure S1. Screening of analogs in the in vitro kinase activity assay to identify […]
Kinase inhibitory activity of the 27 compounds was evaluated by in vitro cell-free biochemical kinase activity assay. The compounds (1 µM) were incubated with recombinant ROCK1 (9.48nM), recombinant MYPT1 (a kinase substrate, 84 nM) and ATP (25 µM). Phosphorylation status of the substrate (pMYPT1) was analyzed to study the […]

In the case of `O=C1N/C(=N\Cc2ccccc2)S/C1=C/c1c[nH]c2ncccc12` [DJ110], the IC50 [1] is reported as 0.49 ± 0.03 µM, the IC50 [2] is reported as 0.88 ± 0.16 µM and the “inhibition of kinase activity (qualitative immunoblot)” value (from here on “inhibition of kinase activity”) ([3]; ROCK1, 0.1 µM) is reported as “significantly inhibited”. For the same compound, the “inhibition of kinase activity” value ([3]; ROCK1, 1 µM) was “significantly inhibit” and the inhibition at 1 µM ([3]; ROCK1, 1 µM) was > 50%.
With `C=CC/N=C1\NC(=O)/C(=C\c2c[nH]c3ncccc23)S1` [DJ-Allyl] the IC50 [1] was 4.7 ± 0.52 µM, the IC50 [2] was 5 ± 2.2 µM and the “inhibition of kinase activity” value ([3]; ROCK1, 1 µM) was “almost completely inhibited”. For the same compound, the inhibition at 1 µM ([3]; ROCK1, 1 µM) was > 50%.
`O=C1N/C(=N\CCN2CCOCC2)S/C1=C/c1c[nH]c2ncccc12` [DJ-Morpholine] was tested, and the IC50 [1] was > 10 µM, the IC50 [2] was > 10 µM and the “inhibition of kinase activity” value ([3]; ROCK1, 1 µM) was “almost completely inhibited”. For the same compound, the inhibition at 1 µM ([3]; ROCK1, 1 µM) was > 50%.
In the case of `CC/N=C1\NC(=O)/C(=C\c2c[nH]c3ncccc23)S1` [DJE4], the IC50 [1] is reported as 5.1 ± 0.32 µM, the IC50 [2] is reported as 6.1 ± 1.69 µM and the “inhibition of kinase activity” value ([3]; ROCK1, 1 µM) is reported as “almost completely inhibited”. For the same compound, the inhibition at 1 µM ([3]; ROCK1, 1 µM) was > 50%.
For `O=C1N/C(=N\CCc2ccccc2)S/C1=C/c1c[nH]c2ncccc12` [DJ4], the IC50 [1] was 1.1 ± 0.15 µM, the IC50 [2] was 5.4 ± 1.19 µM and the “inhibition of kinase activity” value ([3]; ROCK1, 0.1 µM) was “ineffective”. For the same compound, the “inhibition of kinase activity” value ([3]; ROCK1, 1 µM) was “significantly inhibit”.
